Patent US9796671B2, “Aurora kinase inhibitors” (REGENTS OF THE UNIVERSITY OF MINNESOTA, priority 2012, dated 2017)

System: HCT116 cells
Assay: Anchorage-independent growth (soft agar colony formation)
Format: cell-based
Conditions: 0.5 μM
Procedure: FIGS. 3A and 3B. Compounds 1-8 suppress the anchorage-independent growth of HCT116 cells. The asterisk indicates a significant (* p<0.05, ** p<0.01) decrease in colony formation in cells treated with each compound compared with the DMSO treated control group. Two concentrations of each compound, 0.5 μM and 5 μM were tested. […] Compounds 2 and 4 had no effect.
Tumor cells are suspended in basal medium Eagle (BME) medium and added to 0.6% agar, with different concentrations of Compound 1 in a base layer and a top layer of 0.3% agar. The cultures are maintained at 37° C. in a 5% CO2 incubator for 1 to 2 weeks and then colonies are counted under a microscope using the Image-Pro Plus software (v.4) program (Media Cybernetics, Silver Spring, Md.).

Row | SMILES | anchorage-independent growth of HCT116 cells (colony formation)
1 | COc1cc(/C=C/C(=O)/C=C2/C(=O)Nc3ccccc32)cc(OC)c1OC [Compound 5] | best efficiency
2 | COc1cc(/C=C/C(=O)/C=C2/C(=O)Nc3ccccc32)ccc1O [Compound 8] | best efficiency
3 | O=C(/C=C/c1ccc2c(c1)OCO2)/C=C1/C(=O)Nc2ccc(F)cc21 [Compound 6] | best efficiency
4 | O=C(/C=C/c1ccc2c(c1)OCO2)/C=C1/C(=O)Nc2ccc(Cl)cc21 [Compound 2] | no effect
5 | O=C(/C=C/c1ccc2c(c1)OCO2)/C=C1/C(=O)Nc2cccc(Cl)c21 [Compound 4] | no effect
